In PubChem BioAssay AID258 (DTP/NCI, 2004):
Values joined by “and” are separate entries in the source; they are usually repeats but may differ in a detail not shown here. Identical values can stand only once. Toxic doses and inconclusive results are not listed.

Tested on: CD2F1 mice, L1210 leukemia sc, survival T/C
Experiment: NCI In Vivo Anticancer Drug Screen. Data for tumor model L1210 Leukemia (subcutaneous) in CD2F1 (CDF1) mice
Conditions: endpoint: median survival time, higher = longer survival
Outline: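 T/C ratio: treated-group survival or tumor size over vehicle-control group measurement, in mice carrying transplanted tumors.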

O=C1c2ccccc2C(=O)c2c(NCCNCCO)ccc(NCCNCCO)c21
T/C (dose: 0.5 mg/kg/injection, schedule: Q01DX009 (ip), vehicle: saline with Tween-80): 97 % of control
T/C (dose: 0.5 mg/kg/injection, schedule: Q01DX009 (ip), vehicle: saline): 97 % of control
T/C (dose: 1.0 mg/kg/injection, schedule: Q01DX009 (ip), vehicle: saline with Tween-80): 98 % of control
T/C (dose: 1.0 mg/kg/injection, schedule: Q01DX009 (ip), vehicle: saline): 102 % of control and 106 % of control and 86 % of control
T/C (dose: 2.0 mg/kg/injection, schedule: Q01DX009 (ip), vehicle: saline with Tween-80): 101 % of control
T/C (dose: 2.0 mg/kg/injection, schedule: Q01DX009 (ip), vehicle: saline): 102 % of control and 108 % of control
T/C (dose: 4.0 mg/kg/injection, schedule: Q01DX009 (ip), vehicle: Klucel (hydroxypropylcellulose) (HPC)): 98 % of control
T/C (dose: 4.0 mg/kg/injection, schedule: Q01DX009 (ip), vehicle: saline): 105 % of control and 97 % of control
T/C (dose: 4.0 mg/kg/injection, schedule: Q01DX009 (ip), vehicle: water): 101 % of control
T/C (dose: 4.0 mg/kg/injection, schedule: Q01DX009 (oral), vehicle: saline): 94 % of control
T/C (dose: 4.0 mg/kg/injection, schedule: Q01DX009 (sc), vehicle: Klucel (hydroxypropylcellulose) (HPC)): 114 % of control and 124 % of control
T/C (dose: 8.0 mg/kg/injection, schedule: Q01DX005 (oral), vehicle: Klucel (hydroxypropylcellulose) (HPC)): 99 % of control
T/C (dose: 8.0 mg/kg/injection, schedule: Q01DX005 (oral), vehicle: water): 96 % of control
T/C (dose: 8.0 mg/kg/injection, schedule: Q01DX009 (ip), vehicle: Klucel (hydroxypropylcellulose) (HPC)): 122 % of control and 112 % of control
T/C (dose: 8.0 mg/kg/injection, schedule: Q01DX009 (ip), vehicle: saline): 93 % of control
T/C (dose: 8.0 mg/kg/injection, schedule: Q01DX009 (ip), vehicle: water): 104 % of control
T/C (dose: 8.0 mg/kg/injection, schedule: Q01DX009 (oral), vehicle: saline): 96 % of control
T/C (dose: 8.0 mg/kg/injection, schedule: Q01DX009 (sc), vehicle: water): 156 % of control
T/C (dose: 16.0 mg/kg/injection, schedule: Q01DX005 (oral), vehicle: Klucel (hydroxypropylcellulose) (HPC)): 106 % of control
T/C (dose: 16.0 mg/kg/injection, schedule: Q01DX005 (oral), vehicle: water): 96 % of control
T/C (dose: 16.0 mg/kg/injection, schedule: Q01DX009 (ip), vehicle: Klucel (hydroxypropylcellulose) (HPC)): 108 % of control
T/C (dose: 16.0 mg/kg/injection, schedule: Q01DX009 (ip), vehicle: water): 102 % of control
T/C (dose: 16.0 mg/kg/injection, schedule: Q01DX009 (oral), vehicle: saline): 96 % of control
T/C (dose: 16.0 mg/kg/injection, schedule: Q01DX009 (sc), vehicle: Klucel (hydroxypropylcellulose) (HPC)): 177 % of control and 122 % of control and 243 % of control
T/C (dose: 16.0 mg/kg/injection, schedule: Q01DX009 (sc), vehicle: water): 578 % of control
T/C (dose: 32.0 mg/kg/injection, schedule: Q01DX005 (oral), vehicle: Klucel (hydroxypropylcellulose) (HPC)): 103 % of control
T/C (dose: 32.0 mg/kg/injection, schedule: Q01DX005 (oral), vehicle: water): 99 % of control
T/C (dose: 32.0 mg/kg/injection, schedule: Q01DX009 (ip), vehicle: Klucel (hydroxypropylcellulose) (HPC)): 120 % of control and 119 % of control
T/C (dose: 32.0 mg/kg/injection, schedule: Q01DX009 (ip), vehicle: saline): 104 % of control
T/C (dose: 32.0 mg/kg/injection, schedule: Q01DX009 (ip), vehicle: water): 111 % of control
T/C (dose: 32.0 mg/kg/injection, schedule: Q01DX009 (oral), vehicle: saline): 94 % of control
T/C (dose: 32.0 mg/kg/injection, schedule: Q01DX009 (sc), vehicle: Klucel (hydroxypropylcellulose) (HPC)): 200 % of control and 225 % of control
T/C (dose: 32.0 mg/kg/injection, schedule: Q01DX009 (sc), vehicle: water): 243 % of control
T/C (dose: 64.0 mg/kg/injection, schedule: Q01DX005 (oral), vehicle: Klucel (hydroxypropylcellulose) (HPC)): 93 % of control
T/C (dose: 64.0 mg/kg/injection, schedule: Q01DX005 (oral), vehicle: water): 103 % of control
T/C (dose: 64.0 mg/kg/injection, schedule: Q01DX009 (ip), vehicle: saline): 108 % of control and 89 % of control
T/C (dose: 64.0 mg/kg/injection, schedule: Q01DX009 (oral), vehicle: saline): 97 % of control
T/C (dose: 64.0 mg/kg/injection, schedule: Q01DX009 (sc), vehicle: Klucel (hydroxypropylcellulose) (HPC)): 92 % of control
T/C (dose: 128.0 mg/kg/injection, schedule: Q01DX005 (oral), vehicle: Klucel (hydroxypropylcellulose) (HPC)): 97 % of control
T/C (dose: 128.0 mg/kg/injection, schedule: Q01DX005 (oral), vehicle: water): 99 % of control
T/C (dose: 128.0 mg/kg/injection, schedule: Q01DX009 (ip), vehicle: Klucel (hydroxypropylcellulose) (HPC)): 122 % of control
T/C (dose: 128.0 mg/kg/injection, schedule: Q01DX009 (ip), vehicle: saline): 101 % of control
T/C (dose: 128.0 mg/kg/injection, schedule: Q01DX009 (ip), vehicle: water): 114 % of control
T/C (dose: 128.0 mg/kg/injection, schedule: Q01DX009 (oral), vehicle: saline): 102 % of control
T/C (dose: 128.0 mg/kg/injection, schedule: Q01DX009 (sc), vehicle: Klucel (hydroxypropylcellulose) (HPC)): 211 % of control
T/C (dose: 256.0 mg/kg/injection, schedule: Q01DX005 (oral), vehicle: Klucel (hydroxypropylcellulose) (HPC)): 98 % of control
T/C (dose: 256.0 mg/kg/injection, schedule: Q01DX009 (oral), vehicle: saline): 101 % of control
T/C (dose: 512.0 mg/kg/injection, schedule: Q01DX009 (oral), vehicle: saline): 93 % of control

O=c1cnn(C2OC(CO)C(O)C2O)c(=O)[nH]1 (stereo unspecified)
T/C (dose: 37.5 mg/kg/injection, schedule: Q01DX009 (ip), vehicle: saline): 113 % of control
T/C (dose: 75.0 mg/kg/injection, schedule: Q01DX009 (ip), vehicle: saline): 120 % of control
T/C (dose: 250.0 mg/kg/injection, schedule: Q01DX Z (sc), vehicle: saline): 111 % of control
T/C (dose: 500.0 mg/kg/injection, schedule: Q01DX Z (sc), vehicle: saline): 116 % of control
T/C (dose: 1000.0 mg/kg/injection, schedule: Q01DX Z (sc), vehicle: saline): 111 % of control
T/C (dose: 1200.0 mg/kg/injection, schedule: Q01DX009 (ip), vehicle: saline): 103 % of control
T/C (dose: 1200.0 mg/kg/injection, schedule: Q01DX009 (sc), vehicle: saline): 107 % of control

CN(N=O)C(=O)N[C@@H](C=O)[C@@H](O)[C@H](O)[C@H](O)CO
T/C (dose: 12.5 mg/kg/injection, schedule: Q01DX009 (ip), vehicle: other): 110 % of control
T/C (dose: 12.5 mg/kg/injection, schedule: Q01DX009 (sc), vehicle: other): 104 % of control and 109 % of control
T/C (dose: 25.0 mg/kg/injection, schedule: Q01DX009 (ip), vehicle: other): 124 % of control
T/C (dose: 25.0 mg/kg/injection, schedule: Q01DX009 (sc), vehicle: other): 106 % of control and 122 % of control
T/C (dose: 50.0 mg/kg/injection, schedule: Q01DX009 (sc), vehicle: other): 109 % of control
T/C (dose: 100.0 mg/kg/injection, schedule: Q01DX009 (ip), vehicle: other): 121 % of control
T/C (dose: 100.0 mg/kg/injection, schedule: Q01DX009 (sc), vehicle: other): 115 % of control
T/C (dose: 200.0 mg/kg/injection, schedule: Q01DX009 (sc), vehicle: other): 111 % of control

COc1cc([C@@H]2c3cc4c(cc3[C@H](OC(C)=O)[C@H]3COC(=O)[C@@H]23)OCO4)cc(OC)c1OC
T/C (dose: 500.0 mg/kg/injection, schedule: Q01DX Z (sc), vehicle: methylcellulose (MC)): 100 % of control

C[n+]1c2ccccc2nc2c(N)cc(N)cc21
T/C (dose: 3.0 mg/kg/injection, schedule: Q01DX Z (ip), vehicle: water): 100 % of control
T/C (dose: 5.0 mg/kg/injection, schedule: Q01DX Z (ip), vehicle: water): 100 % of control
T/C (dose: 5.0 mg/kg/injection, schedule: Q01DX Z (sc), vehicle: water): 100 % of control
T/C (dose: 8.4 mg/kg/injection, schedule: Q01DX Z (ip), vehicle: water): 100 % of control
T/C (dose: 8.4 mg/kg/injection, schedule: Q01DX Z (sc), vehicle: water): 100 % of control
T/C (dose: 14.0 mg/kg/injection, schedule: Q01DX Z (ip), vehicle: water): 100 % of control
T/C (dose: 14.0 mg/kg/injection, schedule: Q01DX Z (sc), vehicle: water): 100 % of control
T/C (dose: 23.0 mg/kg/injection, schedule: Q01DX Z (ip), vehicle: water): 100 % of control
T/C (dose: 23.0 mg/kg/injection, schedule: Q01DX Z (sc), vehicle: water): 111 % of control
T/C (dose: 39.0 mg/kg/injection, schedule: Q01DX Z (ip), vehicle: water): 111 % of control
T/C (dose: 39.0 mg/kg/injection, schedule: Q01DX Z (sc), vehicle: water): 111 % of control

C[C@]12CCC(=O)C=C1CC[C@@H]1[C@@H]2[C@@H](O)C[C@@]2(C)[C@H]1CC[C@]2(O)C(=O)CO
T/C (dose: 300.0 mg/kg/injection, schedule: Q01DX Z (sc), vehicle: methylcellulose (MC)): 115 % of control
